# Experimental data: ChEMBL document CHEMBL2029232, “Identification of small-molecule inhibitors of the steroidogenic acute regulatory protein (STARD1) by structure-based design” (Bioorg Med Chem Lett, 2012)
# Activity calls are given as the source filed them. No cut-off for these calls is given here.
# Experiments:
# [1] = biological target: T1, Steroidogenic acute regulatory protein, mitochondrial (Mus musculus) (UniProt P51557); assay: Inhibition of STAR in mouse MA-10 cells assessed as inhibition of dbcAMP-stimulated […] at 10 uM after 2 hrs by RIA; type: cell-based
# T1 sequence (whole entry): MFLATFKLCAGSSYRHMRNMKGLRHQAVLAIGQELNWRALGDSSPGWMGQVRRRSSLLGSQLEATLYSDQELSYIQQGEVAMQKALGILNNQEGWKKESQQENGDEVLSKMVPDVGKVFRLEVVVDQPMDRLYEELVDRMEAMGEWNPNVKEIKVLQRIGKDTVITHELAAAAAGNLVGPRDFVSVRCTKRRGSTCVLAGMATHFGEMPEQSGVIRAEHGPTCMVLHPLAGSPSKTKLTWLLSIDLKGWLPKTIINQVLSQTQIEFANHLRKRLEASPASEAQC
# [2] = Inhibition of 22R-hydroxycholesterol-induced steroidogenesis in mouse MA-10 cells assessed as progesterone synthesis per mg of protein at 10 uM after 2 hrs by RIA; type: cell-based; details: ma-10, 2 h
Structure (SMILES),inhibition [1],Activity [2]
C[C@]12CC(O)[C@H]3[C@@H](CCC4=CC(=O)CC[C@@]43C)[C@@H]1CC[C@@H]2C(=O)O (stereo partly drawn),inactive,–
CC(=O)O[C@H]1CC[C@@]2(C)C(=CC[C@H]3[C@@H]4CC(O)[C@H]([C@H](C)OC(C)=O)[C@@]4(C)CC[C@@H]32)C1 (stereo partly drawn),inactive,–
C[C@H](CCC(=O)O)[C@H]1CC[C@H]2[C@@H]3CC=C4C[C@@H](O)CC[C@]4(C)[C@H]3CC[C@]12C,inactive,–
C[C@]12CCC(=O)C=C1CC[C@@H]1[C@@H]2[C@@H](O)C[C@@]2(C)[C@H]1CC[C@]2(O)C(=O)CO,inactive,–
C[C@]12CC[C@H]3[C@@H](CC=C4C[C@@H](O)CC[C@@]43C)[C@@H]1C/C(=C/c1ccc(OC(F)F)cc1)[C@@H]2O,50%,923 ng
CC(=O)OCC(=O)[C@H]1CC[C@H]2[C@@H]3CC=C4C[C@@H](O)CC[C@]4(C)[C@H]3CC[C@]12C,50%,1301 ng
